Data published in patent US20120016009A1, “Optimized Methods For Delivery Of DSRNA Targeting The PCSK9 Gene” (priority 2008, published 2012).
In the oligonucleotide strings, read from the 5' end, every base follows the letter of its sugar. An asterisk marks phosphorothioate; unmarked linkages are phosphodiester. Other units and linkages are bracketed, terminal groups are in braces. A string of capitals states the bases alone. d = 2'-deoxy (DNA); m = 2'-O-methyl; r = 2'-OH (RNA)

System: PCSK9 mRNA
Experiment: PCSK9 siRNA screening in HepG2 cells (lipofectamine 2000 transfection, PCSK9 mRNA by Quantigene, normalized to GAP-DH)
Format: cell-based, human
Conditions: for Mean percent remaining mRNA transcript at siRNA concentration/in cell type 30 nM/HepG2: 30 nM siRNA; for Mean percent remaining mRNA transcript at siRNA concentration/in cell type 3 nM/HepG2: 3 nM siRNA; for Mean percent remaining mRNA transcript at siRNA concentration/in cell type 100 nM/HepG2: 100 nM siRNA
Outline: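 HepG2 cells, grown in MEM with 10% fetal calf serum, antibiotics, non-essential amino acids and sodium pyruvate at 37° C. and 5% CO2, were plated at 2.0×10^4 cells/well in 96-well plates and transfected directly with siRNA using lipofectamine 2000. After 24 hours, cells were lysed and PCSK9 mRNA was measured by Quantigene and normalized to GAP-DH mRNA.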

Substance	Mean percent remaining mRNA transcript at siRNA concentration/in cell type 30 nM/HepG2 [%]	also measured
AD-9566: PCSK9 siRNA (sense rUrGrCrCrGrGrGrCrCrCrArCrArArCrGrCrUrUdT*dT; antisense rArArGrCrGrUrUrGrUrGrGrGrCrCrCrGrGrCrAdT*dT)	38	–
AD-9725: PCSK9 siRNA (sense mUmUmCmUrGrGrAmUrGrGmCrAmUmCmUrArGmCmCdT*dT; antisense rGrGrCmUrArGrArUrGrCmCrArUrCmCrArGrArAdT*dT)	38	–
AD-9630: PCSK9 siRNA (sense rGrGrGrCrArGrGrGrUrCrArUrGrGrUrCrArCrCdT*dT; antisense rGrGrUrGrArCrCrArUrGrArCrCrCrUrGrCrCrCdT*dT)	82	–
AD-9529: PCSK9 siRNA (sense rGrGrGrArUrArCrCrUrCrArCrCrArArGrArUrCdT*dT; antisense rGrArUrCrUrUrGrGrUrGrArGrGrUrArUrCrCrCdT*dT)	60	–
AD-9765: PCSK9 siRNA (sense rGmUrGmCmUrGrArGrGmCmCrAmCrGrArGrGmUmCdT*dT; antisense rGrArCrCrUrCrGrUrGrGrCrCrUmCrArGmCrArCdT*dT)	82	Mean percent remaining mRNA transcript at siRNA concentration/in cell type 3 nM/HepG2: 74%
AD-9642: PCSK9 siRNA (sense mUrGmUrAmUmCmUmCmCmUrArGrAmCrAmCmCrArGdT*dT; antisense rCrUrGrGrUrGrUrCmUrArGrGrArGrAmUrAmCrAdT*dT)	105	–
AD-9696: PCSK9 siRNA (sense mCmUrGmCmCrGrGrGmCmCmCrAmCrArAmCrGmCmUdT*dT; antisense rArGrCrGrUrUrGrUrGrGrGrCrCrCrGrGmCrArGdT*dT)	77	–
AD-9636: PCSK9 siRNA (sense rCrArUrArCrArGrArGrUrGrArCrCrArCrCrGrGdT*dT; antisense rCrCrGrGrUrGrGrUrCrArCrUrCrUrGrUrArUrGdT*dT)	42	IC50: 2.1 nM; Mean percent remaining mRNA transcript at siRNA concentration/in cell type 3 nM/HepG2: 41%
AD-9617: PCSK9 siRNA (sense rArUrGrCrUrGrUrCrUrGrCrCrGrArGrCrCrGrGdT*dT; antisense rCrCrGrGrCrUrCrGrGrCrArGrArCrArGrCrArUdT*dT)	111	–
AD-9702: PCSK9 siRNA (sense rGmCrArGrArGrAmCmUrGrAmUmCmCrAmCmUmUmCdT*dT; antisense rGrArArGrUrGrGrArUmCrArGrUrCrUrCrUrGrCdT*dT)	79	–
AD-9692: PCSK9 siRNA (sense mUrGmCmCrGrGrGmCmCmCrAmCrArAmCrGmCmUmUdT*dT; antisense rArArGrCrGrUrUrGrUrGrGrGrCrCrCrGrGmCrAdT*dT)	78	–
AD-9743: PCSK9 siRNA (sense rAmUrGmCmUrGmUmCmUrGmCmCrGrArGmCmCrGrGdT*dT; antisense rCrCrGrGrCrUrCrGrGmCrArGrAmCrArGmCrArUdT*dT)	104	–
AD-9708: PCSK9 siRNA (sense mCmCrArGmCrAmUmCmCrAmCrGmCmUmUmCmCmUrGdT*dT; antisense mCrArGrGrArArGrCrGrUrGrGrArUrGrCrUrGrGdT*dT)	81	–
AD-9530: PCSK9 siRNA (sense rArCrCrGrGrGrCrGrGrArUrGrArArUrArCrCrAdT*dT; antisense rUrGrGrUrArUrUrCrArUrCrCrGrCrCrCrGrGrUdT*dT)	75	–
AD-9635: PCSK9 siRNA (sense rGrUrCrUrGrCrCrGrArGrCrCrGrGrArGrCrUrCdT*dT; antisense rGrArGrCrUrCrCrGrGrCrUrCrGrGrCrArGrArCdT*dT)	90	Mean percent remaining mRNA transcript at siRNA concentration/in cell type 100 nM/HepG2: 73%
AD-9707: PCSK9 siRNA (sense mUrGmCrGmCrGmUrGmCmUmCrArAmCmUrGmCmCrAdT*dT; antisense rUrGrGmCrArGrUrUrGrArGmCrArCrGrCrGmCrAdT*dT)	81	–
AD-9640: PCSK9 siRNA (sense rGmUrAmCmCrGrGrGmCrGrGrAmUrGrArAmUrAmCdT*dT; antisense rGmUrArUrUmCrArUrCrCrGrCrCrCrGrGmUrArCdT*dT)	89	–
AD-9654: PCSK9 siRNA (sense mCrGrGmUrAmCmCrGrGrGmCrGrGrAmUrGrArAmUdT*dT; antisense rArUrUmCrArUrCrCrGrCrCrCrGrGmUrArCrCrGdT*dT)	107	–
AD-9626: PCSK9 siRNA (sense rUrGrArArGrArUrArUrUrUrArUrUrCrUrGrGrGdT*dT; antisense rCrCrCrArGrArArUrArArArUrArUrCrUrUrCrAdT*dT)	97	Mean percent remaining mRNA transcript at siRNA concentration/in cell type 3 nM/HepG2: 68%

Substance	Mean percent remaining mRNA transcript at siRNA concentration/in cell type 30 nM/HepG2 [%]	also measured
AD-9737: PCSK9 siRNA (sense mUmCmCmUrArGrAmCrAmCmCrArGmCrAmUrAmCrAdT*dT; antisense rUrGmUrArUrGrCrUrGrGrUrGrUrCmUrArGrGrAdT*dT)	68	–
AD-9638: PCSK9 siRNA (sense rCrUrGrGrArGrUrUrUrArUrUrCrGrGrArArArAdT*dT; antisense rUrUrUrUrCrCrGrArArUrArArArCrUrCrCrArGdT*dT)	101	–
AD-9728: PCSK9 siRNA (sense mCrArGmCrGrGmCmCrGrGrGrAmUrGmCmCrGrGmCdT*dT; antisense rGrCrCrGrGmCrArUrCrCrCrGrGrCrCrGrCrUrGdT*dT)	94	–
AD-9539: PCSK9 siRNA (sense rGrGrUrGrGrArGrGrUrGrUrArUrCrUrCrCrUrAdT*dT; antisense rUrArGrGrArGrArUrArCrArCrCrUrCrCrArCrCdT*dT)	63	Mean percent remaining mRNA transcript at siRNA concentration/in cell type 100 nM/HepG2: 56%
AD-9694: PCSK9 siRNA (sense rGmUmUrGrArGrGmCrArGrArGrAmCmUrGrAmUmCdT*dT; antisense rGrArUmCrArGrUrCrUrCrUrGrCrCrUmCrArArCdT*dT)	52	–
AD-9653: PCSK9 siRNA (sense rGmCmCrArAmCmCmCrGmCmUmCmCrAmCmUrAmCmCdT*dT; antisense rGrGmUrArGrUrGrGrArGrCrGrGrGrUrUrGrGrCdT*dT)	86	–
AD-9587: PCSK9 siRNA (sense rArCrArUrUrUrArUrCrUrUrUrUrGrGrGrUrCrUdT*dT; antisense rArGrArCrCrCrArArArArGrArUrArArArUrGrUdT*dT)	63	Mean percent remaining mRNA transcript at siRNA concentration/in cell type 3 nM/HepG2: 49%
AD-9741: PCSK9 siRNA (sense mUmUmCmCrGrGrGrAmCrGrAmUrGmCmCmUrGmCmCdT*dT; antisense rGrGmCrArGrGmCrArUrCrGrUrCrCrCrGrGrArAdT*dT)	130	–
AD-9622: PCSK9 siRNA (sense rCrUrGrUrCrCrCrUrCrCrUrUrGrArGrCrArCrCdT*dT; antisense rGrGrUrGrCrUrCrArArGrGrArGrGrGrArCrArGdT*dT)	94	–
AD-9564: PCSK9 siRNA (sense rUrCrArUrUrGrGrUrGrCrCrUrCrCrArGrCrGrAdT*dT; antisense rUrCrGrCrUrGrGrArGrGrCrArCrCrArArUrGrAdT*dT)	120	–
AD-9656: PCSK9 siRNA (sense rAmCmCrGrGrGmCrGrGrAmUrGrArAmUrAmCmCrAdT*dT; antisense rUrGrGmUrArUrUmCrArUrCrCrGrCrCrCrGrGrUdT*dT)	77	–
AD-9625: PCSK9 siRNA (sense rCrUrGrGrUrGrGrArGrGrUrGrUrArUrCrUrCrCdT*dT; antisense rGrGrArGrArUrArCrArCrCrUrCrCrArCrCrArGdT*dT)	88	Mean percent remaining mRNA transcript at siRNA concentration/in cell type 100 nM/HepG2: 58%
AD-9601: PCSK9 siRNA (sense rArGrGrGrUrCrArUrGrGrUrCrArCrCrGrArCrUdT*dT; antisense rArGrUrCrGrGrUrGrArCrCrArUrGrArCrCrCrUdT*dT)	111	–
AD-9561: PCSK9 siRNA (sense rGrArCrArCrCrArGrCrArUrArCrArGrArGrUrGdT*dT; antisense rCrArCrUrCrUrGrUrArUrGrCrUrGrGrUrGrUrCdT*dT)	64	–
AD-9574: PCSK9 siRNA (sense rCrUrGrCrCrArArGrGrGrArArGrGrGrCrArCrGdT*dT; antisense rCrGrUrGrCrCrCrUrUrCrCrCrUrUrGrGrCrArGdT*dT)	74	–
AD-9558: PCSK9 siRNA (sense rUrArUrCrUrUrUrUrGrGrGrUrCrUrGrUrCrCrUdT*dT; antisense rArGrGrArCrArGrArCrCrCrArArArArGrArUrAdT*dT)	66	–
AD-9745: PCSK9 siRNA (sense mUmCrArGrGrArGmCmCrGrGrGrAmCrGmUmCrArGdT*dT; antisense rCrUrGrArCrGrUrCrCrCrGrGrCrUrCrCrUrGrAdT*dT)	56	–
AD-9740: PCSK9 siRNA (sense rGrGmCrArAmCmUmUmCmCrGrGrGrAmCrGrAmUrGdT*dT; antisense mCrArUrCrGrUrCrCrCrGrGrArArGrUrUrGrCrCdT*dT)	198	–
